According to patent US20090111781A1, “Use of Cymipristone Type Compounds in Aids Treatment” (SHANGHAI THREE-ALLIANCE BIOTECHNOLOGIES CO., LTD., priority 2005, published 2009):
In brackets after ≈: the same amount, converted by molar mass.

Assays:
[1] = test system: HIV-1 AZT-resistant strain 018c P24 antigen; assay: Inhibition of HIV-1 018c P24 antigen in PBMC cell culture; type: cell-based; details: for EC50: Human immunodeficiency virus 1, PBMC, 2 h, PBMC, administration after adsorbing 2 hours; for EC50 / SI: 018c; for SI: SI=CC50/EC50
Experimental: (§1) Collect cells with curette, infect cells with 10^−2 AZT sensitive (018a) or AZT resistant (018c) virus strain liquid, and adsorb for 2 hours, Wash off unabsorbed virus with 1640 culture medium without serum, prepare cells infected by virus to 1×10^6/ml with culture solution, and inoculate on 96-pore culture plate, 100 μl/pore. […] Set cell control group and virus infected cell control group. Incubate under 37° C. and 5% CO2. On the fourth day (96 hours), pipette out the supernatant liquid and store under −20° C. for determination of HIV-1 P24 antigen titer and calculation of drug inhibitory action. Add MTT staining to cells for determination of cytotoxicity. Determination of cytotoxicity by MTT staining: Add 10 μl of 5 mg/ml MTT stain into each pore, continue to incubate under 37° C., 5% CO2 and saturated humidity for 4 hours. […] Determine the HIV-1 P24 antigen titer according to the operation procedure provided by the HIV-1 P24 antigen reagent kit. Compare the drug-added group with virus control group. […] Calculation method of 50% toxic concentration (CC50), 50% effective concentration (EC50) and selection index (SI):
(§2) (3) Calculation Method of Selection Index (SI) on HIV-1 P24 Antigen in Cell Culture SI=CC50/EC50

[2] = Cytotoxicity in MT-4 cell culture by cytopathic method (CPE); type: cell-based, human; details: human, MT-4 cells infected with HIV-1 IIIB, read-out: Cytotoxicity TC50, CPE
Experimental: (§3) Set virus TCID50 determination group and cell control group. Each concentration is duplicated in two pore. Incubate under 37° C., 5% CO2 and saturated humidity in an incubator. Daily observe the cytopathy in above culture plate by microscope, record the degree of cytopathy with routine method, and calculate the 50% toxic concentration (TC50) and maximum nontoxic concentration (TC0) of drug according to Reed & Muench method. […] [formula]

[3] = test system: MT-4 cells; assay: as above; type: cell-based, human
Experimental: as §3

[4] = test system: HIV-1 AZT-sensitive strain 018a P24 antigen; assay: Inhibition of HIV-1 018a P24 antigen in PBMC cell culture; type: cell-based; details: for EC50: Human immunodeficiency virus 1, PBMC, 2 h, administration after adsorbing 2 hours
Experimental: as §1, §2

[5] = molecular target: estrogen receptor ERβ (Homo sapiens, UniProt Q92731); assay: Binding activity on human nuclear receptor ERβ; details: mean ± SD, n = 4
estrogen receptor ERβ, sequence (Q92731 whole entry): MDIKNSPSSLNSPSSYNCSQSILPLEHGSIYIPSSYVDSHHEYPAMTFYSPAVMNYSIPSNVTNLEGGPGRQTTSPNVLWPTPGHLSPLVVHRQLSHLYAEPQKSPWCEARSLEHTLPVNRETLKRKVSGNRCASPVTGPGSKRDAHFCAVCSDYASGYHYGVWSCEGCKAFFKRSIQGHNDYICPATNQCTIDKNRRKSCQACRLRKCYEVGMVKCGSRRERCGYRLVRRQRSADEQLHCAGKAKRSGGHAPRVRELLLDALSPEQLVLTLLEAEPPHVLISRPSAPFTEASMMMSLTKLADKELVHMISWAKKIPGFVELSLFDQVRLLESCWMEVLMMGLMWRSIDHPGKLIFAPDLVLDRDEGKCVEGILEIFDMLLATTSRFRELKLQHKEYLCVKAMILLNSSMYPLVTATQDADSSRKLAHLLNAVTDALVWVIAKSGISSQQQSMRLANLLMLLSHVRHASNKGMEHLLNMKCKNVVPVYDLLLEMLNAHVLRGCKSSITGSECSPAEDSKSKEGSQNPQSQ
Experimental: Buffer solution is composed of 25 mM NaPO4, 20 mM NaMoO4, 10 mM KF and 10% glycerol (pH=7.3) and stored under 4° C. Stock solution is prepared with CHAPS and DTT and stored under −20° C. […] Add 2.5 μl/hole into 96-pore plate. Take out appropriate amount of buffer solution reserve into solution to make the final concentration of CHAPS and DDT to become 0.25 mM and 2 mM respectively. Add protease inhibitors (aprotinin and leupeptin) to make its final concentration to become 1 μg/μl, and place in an ice bath. After adding human nuclear receptor GR (1:8), PR (1:100), ER (1:2000), AR (1:200) and MR (1:40) into the reaction system respectively, adequately mix suitable quantity of [^3H]-dexamethasone, [^3H]-progesterone, [^3H]-estradiol and [^3H]-DHT (from Amersham), rapidly add into 96-pore plate (100 μl/pore) and incubate overnight under 4° C. On the next day, add 25 μl of hydroxyapatite suspension into each pore and mix with shaking. After incubating for 10 min, separate by centrifuge for 3 min at 2500 rpm. The precipitate is washed with 100 μl of buffer solution and separated by centrifuge twice. Add 150 μl of scintillation solution (from Perkin Elmer) into each pore, mix with shaking and count by MicroBeta counter.

[6] = MTT toxicity on PBMC infected by HIV-1 AZT-sensitive strain 018a; details: human, PBMC, 018a
Experimental: as §1, with “(SI): […]” for “(SI):”

CC#C[C@]1(O)CC[C@H]2[C@@H]3CCC4=CC(=O)CCC4=C3[C@@H](c3ccc(N(C)C4CCCCC4)cc3)C[C@@]21C [Cymipristone, 11β-[4-(N-methyl-N-cyclohexylamino)phenyl]-17α-(1-propynyl)-17β-hydroxyl-4,9-estradiene-3-one]
EC50 ([1]; Average): 7.9 µg/mL (≈ 15.9 µM) | EC50 ([1]; Experiment 1): 8.42 µg/mL (≈ 16.9 µM) | EC50 ([1]; Experiment 2): 7.38 µg/mL (≈ 14.8 µM) | SI ([1]; Average): 13.18 | SI ([1]; Experiment 1): 12.21 | SI ([1]; Experiment 2): 14.15 | Cross resistance with zidovudine (AZT) (in words) ([1]; conclusion): no cross resistance | CC50 [2]: 15.5 µM | Cytotoxicity TC50, CPE [3]: 7.704 µg/mL | EC50 ([4]; Average, PBMC): 12.4 µg/mL (≈ 24.8 µM) | EC50 ([4]; Experiment 1, PBMC): 12.5 µg/mL (≈ 25.1 µM) | EC50 ([4]; Experiment 2, PBMC): 12.2 µg/mL (≈ 24.6 µM) | SI ([4]; SI=CC50/EC50, Average): 10.53 | SI ([4]; SI=CC50/EC50, Experiment 1): 8.30 | SI ([4]; SI=CC50/EC50, Experiment 2): 12.76 | IC50 [5]: 0.2787 ± 0.00063 µM | CC50 at 96 h ([6]; 50% toxic concentration CC50, Average): 130 µg/mL (≈ 261 µM) | CC50 at 96 h ([6]; 50% toxic concentration CC50, Experiment 1): 104 µg/mL (≈ 208 µM) | CC50 at 96 h ([6]; 50% toxic concentration CC50, Experiment 2): 156 µg/mL (≈ 314 µM)
